Results on ten molecules are retold here after paper PMC7531004, “Discovery of gramicidin A analogues with altered activities by multidimensional screening of a one-bead-one-compound library” (Nature Communications, 2020).

Where a SMILES comes first, the peptide text is derived from it. [ ]: non-standard residue; d: D form. The star is where a group is joined. NHCH2CH2OH = OCCN*; For = O=C*

Data set [1] relates to Streptococcus pyogenes SSI-9. Nature of the data set: Antibacterial activity assay of bead-derived peptides (three concentrations). It counts as cell-based. As to conditions: S. pyogenes, bead-derived peptide solution, three concentrations. More on the design: key: +++: inhibition by the 640-fold diluted peptide solution; ++: inhibition by the 160-fold diluted solution; +: inhibition by the 40-fold diluted solution; -: no inhibition. In outline: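 Library peptide stock applied undiluted, 4-fold and 16-fold diluted in DMSO to S. pyogenes SSI-9 (2 × 10^5 CFU) in cation-adjusted Mueller Hinton broth with 5% laked horse blood. After 18 h at 37 °C, growth judged by visible cell precipitation.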

A short description of data set [2]: H+/Na+ transport assay of bead-derived peptides (one-point).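 Note: relative to parent gramicidin A activity set to 1.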 The data set is classed as biochemical. More on the design: key: relative activity; mean of two control wells = 1.00. The conditions noted are these: bead-derived peptide solution, EYPC/EYPG LUVs. In outline:
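Values are normalized fluorescence, with Triton X-100 defining 100% and untreated LUVs 0%, and the two control wells averaging 1.00. Vesicles carried 1.0 mM pyranine and included egg yolk phosphatidylglycerol. Peptides were incubated with them 30 min at room temperature.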

For data set [3] the following is noted: cell viability/%. In outline:
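P388 cells at 1 × 10^4 cells/mL (final) were exposed to library peptides (stocks diluted 250-fold in RPMI1640/10% FBS) for 92 h at 37 °C, 5% CO2. Viable cells were counted by WST-1/1-methoxy PMS (4 h), absorbance 415 nm, and expressed as cell viability (%).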

Usually viability stands for the share of living cells, or the viability signal relative to a control. As for `CC(C)C[C@@H](NC(=O)[C@H](C)NC(=O)CNC(=O)[C@@H](NC=O)C(C)C)C(=O)N[C@@H](C)C(=O)N[C@@H](C(=O)N[C@H](C(=O)N[C@H](CC(C)C)C(=O)N[C@@H](Cc1c[nH]c2ccccc12)C(=O)N[C@H](CC(C)C)C(=O)N[C@@H](Cc1c[nH]c2ccccc12)C(=O)N[C@@H](C(=O)N[C@@H](Cc1c[nH]c2ccccc12)C(=O)N[C@@H](C(=O)N[C@@H](Cc1c[nH]c2ccccc12)C(=O)NCCO)[C@H](C)O)C(C)C)C(C)C)[C@H](C)O` [compound 113] (For-VGA[dL]A[dT]V[dL]W[dL]W[dV]W[dT]W-NHCH2CH2OH), in data set [1], the antibacterial activity result was “-”. In addition, in data set [2], the “H+/Na+ transport activity normalized against the value of 1 (1.00)” value (“H+/Na+ transport activity normalized” below) is listed as 1.00. Moreover, the viability in data set [3] was 100%.
The like results for `CC(C)C[C@@H](NC(=O)[C@H](C)NC(=O)[C@H](NC(=O)[C@H](C)NC(=O)CNC(=O)[C@@H](NC=O)C(C)C)C(C)C)C(=O)N[C@H](C(=O)N[C@H](CC(C)C)C(=O)N[C@@H](Cc1c[nH]c2ccccc12)C(=O)N[C@H](CC(C)C)C(=O)N[C@@H](Cc1c[nH]c2ccccc12)C(=O)N[C@H](CC(C)C)C(=O)N[C@@H](Cc1c[nH]c2ccccc12)C(=O)N[C@@H](C(=O)N[C@@H](Cc1c[nH]c2ccccc12)C(=O)NCCO)[C@H](C)O)C(C)C` [compound 129] (For-VGA[dV]A[dL]V[dL]W[dL]W[dL]W[dT]W-NHCH2CH2OH) were, in that order, “+”, 1.05 and 100%.
The like results for `CC(C)C[C@@H](NC(=O)[C@H](C)NC(=O)[C@H](NC(=O)[C@H](C)NC(=O)CNC(=O)[C@@H](NC=O)C(C)C)[C@H](C)O)C(=O)N[C@H](C(=O)N[C@H](CC(C)C)C(=O)N[C@@H](Cc1c[nH]c2ccccc12)C(=O)N[C@@H](C(=O)N[C@@H](Cc1c[nH]c2ccccc12)C(=O)N[C@H](CC(C)C)C(=O)N[C@@H](Cc1c[nH]c2ccccc12)C(=O)N[C@H](CC(C)C)C(=O)N[C@@H](Cc1c[nH]c2ccccc12)C(=O)NCCO)[C@H](C)O)C(C)C` [compound 131] (For-VGA[dT]A[dL]V[dL]W[dT]W[dL]W[dL]W-NHCH2CH2OH) were, in that order, “-”, 1.10 and 100%.
As for `CC(C)C[C@@H](NC(=O)[C@H](Cc1c[nH]c2ccccc12)NC(=O)[C@H](NC(=O)[C@@H](NC(=O)[C@H](NC(=O)[C@H](C)NC(=O)[C@H](NC(=O)[C@H](C)NC(=O)CNC(=O)[C@@H](NC=O)C(C)C)C(C)C)C(C)C)C(C)C)C(C)C)C(=O)N[C@@H](Cc1c[nH]c2ccccc12)C(=O)N[C@@H](C(=O)N[C@@H](Cc1c[nH]c2ccccc12)C(=O)N[C@@H](C(=O)N[C@@H](Cc1c[nH]c2ccccc12)C(=O)NCCO)C(C)C)C(C)C` [compound 169] (For-VGA[dV]A[dV]V[dV]W[dL]W[dV]W[dV]W-NHCH2CH2OH), the antibacterial activity result in data set [1] is given as “++”. Besides, the “H+/Na+ transport activity normalized” value in data set [2] is recorded as 1.04. In addition, the viability in data set [3] was 100%.
The like results for `CC(C)C[C@@H](NC(=O)[C@H](C)NC(=O)CNC(=O)[C@@H](NC=O)C(C)C)C(=O)N[C@@H](C)C(=O)N[C@H](CC(C)C)C(=O)N[C@H](C(=O)N[C@H](CC(C)C)C(=O)N[C@@H](Cc1c[nH]c2ccccc12)C(=O)N[C@@H](C(=O)N[C@@H](Cc1c[nH]c2ccccc12)C(=O)N[C@@H](C(=O)N[C@@H](Cc1c[nH]c2ccccc12)C(=O)N[C@H](CC(C)C)C(=O)N[C@@H](Cc1c[nH]c2ccccc12)C(=O)NCCO)C(C)C)[C@H](C)O)C(C)C` [compound 196] (For-VGA[dL]A[dL]V[dL]W[dT]W[dV]W[dL]W-NHCH2CH2OH) were, in that order, “-”, 1.06 and 100%.
On the same counts, the results for `CC(C)C[C@@H](NC(=O)[C@H](C)NC(=O)CNC(=O)[C@@H](NC=O)C(C)C)C(=O)N[C@@H](C)C(=O)N[C@@H](C(=O)N[C@H](C(=O)N[C@@H](C(=O)N[C@@H](Cc1c[nH]c2ccccc12)C(=O)N[C@H](CC(C)C)C(=O)N[C@@H](Cc1c[nH]c2ccccc12)C(=O)N[C@H](CC(C)C)C(=O)N[C@@H](Cc1c[nH]c2ccccc12)C(=O)N[C@@H](C(=O)N[C@@H](Cc1c[nH]c2ccccc12)C(=O)NCCO)C(C)C)[C@H](C)O)C(C)C)C(C)C` [compound 200] (For-VGA[dL]A[dV]V[dT]W[dL]W[dL]W[dV]W-NHCH2CH2OH) are “+”, 1.04 and 100%.
The like results for `CC(C)C[C@@H](NC(=O)[C@H](C)NC(=O)CNC(=O)[C@@H](NC=O)C(C)C)C(=O)N[C@@H](C)C(=O)N[C@@H](C(=O)N[C@H](C(=O)N[C@H](CC(C)C)C(=O)N[C@@H](Cc1c[nH]c2ccccc12)C(=O)N[C@@H](C(=O)N[C@@H](Cc1c[nH]c2ccccc12)C(=O)N[C@@H](C(=O)N[C@@H](Cc1c[nH]c2ccccc12)C(=O)N[C@H](CC(C)C)C(=O)N[C@@H](Cc1c[nH]c2ccccc12)C(=O)NCCO)[C@H](C)O)C(C)C)C(C)C)C(C)C` [compound 201] (For-VGA[dL]A[dV]V[dL]W[dV]W[dT]W[dL]W-NHCH2CH2OH) were, in that order, “-”, 1.06 and 100%.
With `CC(C)C[C@@H](NC(=O)[C@H](C)NC(=O)CNC(=O)[C@@H](NC=O)C(C)C)C(=O)N[C@@H](C)C(=O)N[C@@H](C(=O)N[C@H](C(=O)N[C@@H](C(=O)N[C@@H](Cc1c[nH]c2ccccc12)C(=O)N[C@@H](C(=O)N[C@@H](Cc1c[nH]c2ccccc12)C(=O)N[C@@H](C(=O)N[C@@H](Cc1c[nH]c2ccccc12)C(=O)N[C@H](CC(C)C)C(=O)N[C@@H](Cc1c[nH]c2ccccc12)C(=O)NCCO)C(C)C)C(C)C)[C@H](C)O)C(C)C)C(C)C` [compound 285] (For-VGA[dL]A[dV]V[dT]W[dV]W[dV]W[dL]W-NHCH2CH2OH), the antibacterial activity result in data set [1] is reported as “-”. Also, the “H+/Na+ transport activity normalized” value in data set [2] worked out at 1.08. Moreover, the viability in data set [3] was determined as 100%.
In the case of `CNC(=O)C[C@@H](NC(=O)[C@H](Cc1c[nH]c2ccccc12)NC(=O)[C@@H](CC(C)C)NC(=O)[C@H](Cc1c[nH]c2ccccc12)NC(=O)[C@@H](CC(C)C)NC(=O)[C@H](Cc1c[nH]c2ccccc12)NC(=O)[C@@H](CC(C)C)NC(=O)[C@@H](NC(=O)[C@@H](CC(C)C)NC(=O)[C@H](C)NC(=O)[C@@H](CC(C)C)NC(=O)[C@H](C)NC(=O)CNC(=O)[C@@H](NC=O)C(C)C)C(C)C)C(=O)N[C@@H](Cc1c[nH]c2ccccc12)C(=O)NCCO` [compound 300] (For-VGA[dL]A[dL]V[dL]W[dL]W[dL]W[dD](NHMe)W-NHCH2CH2OH), the antibacterial activity result in data set [1] was “-”. In data set [2], the “H+/Na+ transport activity normalized” value was 1.00. The viability in data set [3] amounted to 100%.
The like results for `CNC(=O)C[C@@H](NC(=O)[C@H](C)NC(=O)[C@@H](CC(C)C)NC(=O)[C@H](C)NC(=O)CNC(=O)[C@@H](NC=O)C(C)C)C(=O)N[C@H](C(=O)N[C@@H](C(=O)N[C@@H](Cc1c[nH]c2ccccc12)C(=O)N[C@H](CC(C)C)C(=O)N[C@@H](Cc1c[nH]c2ccccc12)C(=O)N[C@H](CC(C)C)C(=O)N[C@@H](Cc1c[nH]c2ccccc12)C(=O)N[C@@H](C(=O)N[C@@H](Cc1c[nH]c2ccccc12)C(=O)NCCO)C(C)C)C(C)C)C(C)C` [compound 346] (For-VGA[dL]A[dD](NHMe)V[dV]W[dL]W[dL]W[dV]W-NHCH2CH2OH) were, in that order, “-”, 1.12 and 100%.
